Laboratory results from article PMC10011331, “Vitamin C transporter SVCT1 serves a physiological role as a urate importer: functional analyses and in vivo investigations” (Pflugers Archiv, 2023).
Values belong to the compound of their own block, whether it stands above or below them.

Columns and labels:
Format in all cases: cell-based
SVCT1 [1] = target: T1, SVCT1 (Homo sapiens, UniProt Q9UHI7); experiment: inhibition of […]-vitamin C uptake in SVCT1-expressing […] cells (urate uptake IC50 […])
T1 construct: gene SLC23A1

SVCT1 [2] = target: T1, SVCT1; experiment: as above; remark: listed apart in the source
SVCT1 [3] = target: T1, SVCT1; experiment: as above; remark: listed apart in the source
GLUT9a = target: T2, GLUT9a (Homo sapiens, UniProt Q9NRM0); experiment: [[…]-14C]-urate uptake in GLUT9a-expressing cells, high-potassium buffer
T2 construct: gene SLC2A9; full-length human GLUT9a/SLC2A9a WT in pEGFP-N1
T2 sequence (Q9NRM0 1-540): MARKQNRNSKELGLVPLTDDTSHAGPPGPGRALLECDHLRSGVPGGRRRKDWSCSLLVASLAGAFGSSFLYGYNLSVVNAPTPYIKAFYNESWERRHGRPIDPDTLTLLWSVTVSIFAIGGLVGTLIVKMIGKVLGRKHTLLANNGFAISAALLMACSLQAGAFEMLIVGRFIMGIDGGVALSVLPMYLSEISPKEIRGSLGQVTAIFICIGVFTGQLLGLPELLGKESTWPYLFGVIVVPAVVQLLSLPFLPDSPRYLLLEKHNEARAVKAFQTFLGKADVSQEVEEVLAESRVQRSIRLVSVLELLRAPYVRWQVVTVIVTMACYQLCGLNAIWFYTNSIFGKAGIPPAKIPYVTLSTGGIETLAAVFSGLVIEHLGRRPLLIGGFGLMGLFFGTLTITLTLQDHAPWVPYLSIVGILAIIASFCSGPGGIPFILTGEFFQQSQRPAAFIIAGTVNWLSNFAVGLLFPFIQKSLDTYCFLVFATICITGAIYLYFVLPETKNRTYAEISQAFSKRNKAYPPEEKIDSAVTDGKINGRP

URAT1 = target: T3, URAT1 (Homo sapiens, UniProt Q96S37); experiment: [[…]-14C]-urate uptake in URAT1-expressing HEK293 cells
T3 construct: gene SLC22A12; full-length human URAT1 WT in pEGFP-C1
T3 sequence (Q96S37 1-553): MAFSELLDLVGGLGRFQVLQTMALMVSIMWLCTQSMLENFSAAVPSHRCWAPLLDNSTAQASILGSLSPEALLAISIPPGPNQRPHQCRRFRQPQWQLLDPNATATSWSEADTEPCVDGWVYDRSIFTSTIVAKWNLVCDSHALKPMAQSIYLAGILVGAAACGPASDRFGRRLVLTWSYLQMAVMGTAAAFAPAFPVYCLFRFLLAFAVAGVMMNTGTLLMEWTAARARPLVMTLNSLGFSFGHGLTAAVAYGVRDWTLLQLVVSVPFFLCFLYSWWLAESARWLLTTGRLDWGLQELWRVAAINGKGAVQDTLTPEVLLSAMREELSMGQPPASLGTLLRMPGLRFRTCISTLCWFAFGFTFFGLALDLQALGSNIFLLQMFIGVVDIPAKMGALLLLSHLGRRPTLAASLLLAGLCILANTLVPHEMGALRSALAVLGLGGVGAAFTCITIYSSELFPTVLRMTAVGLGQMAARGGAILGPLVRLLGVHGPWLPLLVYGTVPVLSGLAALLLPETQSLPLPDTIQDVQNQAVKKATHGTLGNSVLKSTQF

ABCG2 = target: T4, ABCG2 (Homo sapiens, UniProt Q9UNQ0)
T4 construct: EGFP-ABCG2 in plasma membrane vesicles from 293A cells
T4 sequence (Q9UNQ0 1-655): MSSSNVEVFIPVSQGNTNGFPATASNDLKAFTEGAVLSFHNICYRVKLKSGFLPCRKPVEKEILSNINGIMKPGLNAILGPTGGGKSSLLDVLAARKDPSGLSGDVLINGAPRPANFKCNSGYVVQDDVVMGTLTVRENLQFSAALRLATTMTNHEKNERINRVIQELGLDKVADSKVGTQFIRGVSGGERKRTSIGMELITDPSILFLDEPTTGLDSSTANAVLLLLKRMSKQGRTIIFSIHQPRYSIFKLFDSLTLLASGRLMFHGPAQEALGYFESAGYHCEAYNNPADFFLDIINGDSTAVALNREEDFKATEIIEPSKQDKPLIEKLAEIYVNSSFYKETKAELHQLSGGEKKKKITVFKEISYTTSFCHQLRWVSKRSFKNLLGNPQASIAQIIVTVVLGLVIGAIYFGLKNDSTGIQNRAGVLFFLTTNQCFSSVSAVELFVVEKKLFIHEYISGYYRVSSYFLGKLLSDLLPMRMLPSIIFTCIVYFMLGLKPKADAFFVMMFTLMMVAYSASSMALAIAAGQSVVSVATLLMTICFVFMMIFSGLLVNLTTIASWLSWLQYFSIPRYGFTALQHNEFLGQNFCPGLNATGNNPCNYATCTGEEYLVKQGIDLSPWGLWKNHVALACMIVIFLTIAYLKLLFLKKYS

SVCT1 [4] = target: T1, SVCT1; experiment: […]-vitamin C uptake and inhibition of […]-urate uptake in SVCT1-expressing HEK293 cells
Svct1 [5] = target: T5, Svct1 (Mus musculus, UniProt Q9Z2J0); experiment: […]-vitamin C uptake and inhibition of […]-urate uptake in Svct1-expressing HEK293 cells
T5 construct: gene Slc23a1; mouse Svct1 WT, EGFP fusion
T5 sequence (Q9Z2J0 whole entry, the tested form may be a part): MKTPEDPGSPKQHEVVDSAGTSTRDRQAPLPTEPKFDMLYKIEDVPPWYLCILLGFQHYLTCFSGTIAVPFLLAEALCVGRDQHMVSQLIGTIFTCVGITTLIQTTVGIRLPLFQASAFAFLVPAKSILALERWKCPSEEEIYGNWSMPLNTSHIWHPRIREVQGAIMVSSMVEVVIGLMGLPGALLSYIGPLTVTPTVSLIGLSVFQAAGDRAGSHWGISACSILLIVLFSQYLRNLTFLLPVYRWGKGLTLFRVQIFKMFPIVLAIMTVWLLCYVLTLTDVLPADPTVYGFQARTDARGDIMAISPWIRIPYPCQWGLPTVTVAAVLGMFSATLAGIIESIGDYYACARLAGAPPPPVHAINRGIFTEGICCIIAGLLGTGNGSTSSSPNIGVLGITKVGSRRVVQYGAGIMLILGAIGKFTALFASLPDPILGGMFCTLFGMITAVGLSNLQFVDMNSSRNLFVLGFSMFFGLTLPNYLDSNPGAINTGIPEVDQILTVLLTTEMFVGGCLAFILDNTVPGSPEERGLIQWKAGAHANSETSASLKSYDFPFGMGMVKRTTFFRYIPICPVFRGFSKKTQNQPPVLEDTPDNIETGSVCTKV

T1 sequence (Q9UHI7 whole entry): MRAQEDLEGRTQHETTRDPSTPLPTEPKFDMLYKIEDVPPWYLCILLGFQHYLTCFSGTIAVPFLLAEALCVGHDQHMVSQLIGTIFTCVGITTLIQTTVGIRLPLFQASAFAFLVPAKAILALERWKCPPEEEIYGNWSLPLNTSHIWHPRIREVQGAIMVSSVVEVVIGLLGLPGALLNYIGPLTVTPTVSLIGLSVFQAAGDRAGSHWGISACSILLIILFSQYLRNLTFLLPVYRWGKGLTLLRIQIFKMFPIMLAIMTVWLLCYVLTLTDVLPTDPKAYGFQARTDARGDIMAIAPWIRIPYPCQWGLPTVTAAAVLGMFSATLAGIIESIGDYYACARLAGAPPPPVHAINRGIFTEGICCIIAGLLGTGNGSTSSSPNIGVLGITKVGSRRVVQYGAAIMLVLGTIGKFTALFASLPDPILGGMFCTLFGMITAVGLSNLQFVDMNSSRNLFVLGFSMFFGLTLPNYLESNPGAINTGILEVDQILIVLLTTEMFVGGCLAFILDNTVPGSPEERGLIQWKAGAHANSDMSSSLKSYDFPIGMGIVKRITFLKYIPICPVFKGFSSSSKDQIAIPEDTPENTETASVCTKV

IC50 (SVCT1 [1]): 2.86 µM
Compound: CCc1oc2cc(O)ccc2c1C(=O)c1cc(Br)c(O)c(Br)c1 [6-OH BBR, 6-hydroxybenzbromarone]

Compound: CCc1oc2ccccc2c1C(=O)c1cc(Br)c(O)c(Br)c1 [BBR, benzbromarone]
IC50 (SVCT1 [2]): 8.39 µM

IC50 (SVCT1 [3]): 11.8 µM
Compound: O=C(c1cc(Cl)c(O)c(Cl)c1)N1CS(=O)(=O)c2ccccc21 [DU, dotinurad]

Compound: O=c1[nH]c(=O)c2[nH]c(=O)[nH]c2[nH]1 [urate]
[8-14C]-urate uptake in GLUT9a-expressing cells, high-potassium buffer (GLUT9a): Even under appropriate experimental conditions in which urate transport activities were detected, neither URAT1, GLUT9, nor ABCG2 could transport vitamin C
[8-14C]-urate uptake in URAT1-expressing HEK293 cells (URAT1): Even under appropriate experimental conditions in which urate transport activities were detected, neither URAT1, GLUT9, nor ABCG2 could transport vitamin C
[8-14C]-urate vesicle transport assay with ABCG2-expressing membrane vesicles (ABCG2): Even under appropriate experimental conditions in which urate transport activities were detected, neither URAT1, GLUT9, nor ABCG2 could transport vitamin C

Compound: O=C1O[C@H]([C@@H](O)CO)C(O)=C1O [vitamin C]
IC50 (SVCT1 [4]): 95.1 µM
IC50 (Svct1 [5]): 130 µM
